# Patent US8450308B2 (Vitae Pharmaceuticals, Inc., priority 2008, dated 2013)
# Biological target: T1, truncated human beta-secretase (residues 1-458, His6-tagged at the C-terminus) (Homo sapiens, UniProt P56817)
# T1 construct: truncated human beta-secretase (residues 1-458, His6-tagged at the C-terminus); His6 (C); made in house; host or cells: insect cells D. melanogaster S2 (baculovirus expression system (so in the source))
# Test: BACE fluorescence quench assay
# Format: biochemical
# Conditions: in vitro enzyme activity, BACE fluorescence assay, pH 4.5; read-out: IC50
# T1 sequence (P56817 22-458): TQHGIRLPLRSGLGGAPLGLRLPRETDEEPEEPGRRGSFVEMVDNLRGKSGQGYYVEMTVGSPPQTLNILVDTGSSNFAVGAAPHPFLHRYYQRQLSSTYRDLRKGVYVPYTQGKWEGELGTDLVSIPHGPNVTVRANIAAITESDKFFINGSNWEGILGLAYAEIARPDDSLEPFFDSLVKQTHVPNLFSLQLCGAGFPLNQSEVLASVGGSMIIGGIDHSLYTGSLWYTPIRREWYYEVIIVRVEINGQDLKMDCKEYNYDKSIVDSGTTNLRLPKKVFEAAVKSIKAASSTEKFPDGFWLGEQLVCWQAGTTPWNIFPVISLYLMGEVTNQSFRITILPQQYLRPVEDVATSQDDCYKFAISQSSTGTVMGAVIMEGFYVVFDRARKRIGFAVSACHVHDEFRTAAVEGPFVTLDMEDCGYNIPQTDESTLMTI
row,IC50 [µM],SMILES
1,0.1 to 0.5,CN1OC2(CC(C3CC(C)(C)OC(C)(C)C3)Oc3ccc(-c4cccc(C#N)c4)cc32)N=C1N (stereo not drawn) [Compound 327]
2,0.1 to 0.5,COc1cc(F)cc(-c2ccc3c(c2)[C@]2(C[C@@]4(CCCOC4)O3)N=C(N)N(C)C2=O)c1 [Compound 328]
3,0.1 to 0.5,CN1OC2(CC3(CCCN(c4ncccn4)C3)Oc3ccc(-c4cccc(C#N)c4)cc32)N=C1N (stereo not drawn) [Compound 329]
4,0.1 to 0.5,CN1C(=O)C2(CC3(CCCOC3)Oc3ccc(-c4cc(F)ccc4F)cc32)N=C1N (stereo not drawn) [Compound 332]
5,0.1 to 0.5,CN1OC2(CC(C3CCCOC3)Oc3ccc(-c4ccc(F)c(C#N)c4F)cc32)N=C1N (stereo not drawn) [Compound 334]
6,0.1 to 0.5,CN1C(=O)[C@@]2(C[C@@]3(CCCOC3)Oc3ccc(-c4cccc(Br)c4)cc32)N=C1N [Compound 336]
7,0.1 to 0.5,CN1OC2(CC(C3CCOC(C)(C)C3)Oc3ccc(-c4cc(F)cc(F)c4)cc32)N=C1N (stereo not drawn) [Compound 339]
8,0.1 to 0.5,Cc1cc(C)cc(-c2ccc3c(c2)[C@]2(C[C@@]4(CCCOC4)O3)N=C(N)N(C)C2=O)c1 [Compound 340]
9,0.1 to 0.5,CN1OC2(C[C@H]([C@H]3CCOC(C)(C)C3)Oc3ccc(-c4cc(F)ccc4F)cc32)N=C1N (stereo partly drawn) [Compound 341]
10,0.1 to 0.5,CCOc1ccc(Cl)cc1-c1ccc2c(c1)[C@]1(C[C@]3(CCCOC3)O2)N=C(N)N(C)C1=O [Compound 342]
11,0.1 to 0.5,CN1OC2(CC(C3CCOC(C)(C)C3)Oc3ccc(-c4cccc(F)c4)cc32)N=C1N (stereo not drawn) [Compound 343]
12,0.1 to 0.5,CN1OC2(CC(C3CCOC(C)(C)C3)Oc3ccc(-c4cc(F)cc(F)c4F)cc32)N=C1N (stereo not drawn) [Compound 344]
13,0.5 to 1,CN1C(=O)C2(CC3(CCCOC3)Oc3ccc(-c4cc(F)cc(F)c4F)cc32)N=C1N (stereo not drawn) [Compound 346]
14,0.5 to 1,CN1C(=O)C2(CC3(CCCOC3)Oc3ccc(-c4cccc(F)c4)cc32)N=C1N (stereo not drawn) [Compound 347]
15,0.5 to 1,CN1OC2(CC(C3CCOCC3)Oc3ccc(-c4cc(Cl)cc(C#N)c4)cc32)N=C1N (stereo not drawn) [Compound 350]
16,0.5 to 1,CN1C(=O)C2(CC3(CCCOC3)Oc3ccc(-c4ccc(F)c(F)c4)cc32)N=C1N (stereo not drawn) [Compound 351]
17,0.5 to 1,CN1OC2(CC(C3CCOC(C)(C)C3)Oc3ccc(-c4cc(C#N)ccc4C(F)(F)F)cc32)N=C1N (stereo not drawn) [Compound 354]
18,0.5 to 1,CN1C(=O)[C@@]2(C[C@@]3(CCCOC3)Oc3ccc(-c4cc(F)cc(C#N)c4)cc32)N=C1N [Compound 356]
19,0.5 to 1,CN1C(=O)[C@@]2(C[C@@]3(CCCOC3)Oc3ccc(-c4cccc(OC(F)(F)F)c4)cc32)N=C1N [Compound 357]
20,0.5 to 1,CC(=O)c1cccc(-c2ccc3c(c2)[C@]2(C[C@]4(CCCOC4)O3)N=C(N)N(C)C2=O)c1 [Compound 358]
21,0.5 to 1,CN1C(=O)[C@@]2(C[C@@]3(CCCOC3)Oc3ccc(-c4cc(F)cc(F)c4F)cc32)N=C1N [Compound 359]
22,0.5 to 1,CN1OC2(CC(C3CCOC(C)(C)C3)Oc3ccc(-c4ccc5cn[nH]c5c4)cc32)N=C1N (stereo not drawn) [Compound 361]
23,0.5 to 1,CN1OC2(C[C@H]([C@@H]3CCOC(C)(C)C3)Oc3ccc(-c4ccc(F)c(F)c4)cc32)N=C1N (stereo partly drawn) [Compound 362]

row,IC50 [µM],SMILES
1,0.5 to 1,Cc1cccc(-c2ccc3c(c2)C2(CC(C4CCOC(C)(C)C4)O3)N=C(N)N(C)O2)c1F (stereo not drawn) [Compound 363]
2,0.5 to 1,Cc1ccc(C)c(-c2ccc3c(c2)C2(CC4(CCCOC4)O3)N=C(N)N(C)C2=O)c1 (stereo not drawn) [Compound 364]
3,0.5 to 1,CN1OC2(C[C@H]([C@H]3CCOC(C)(C)C3)Oc3ccc(-c4ccc(F)c(F)c4)cc32)N=C1N (stereo partly drawn) [Compound 365]
4,0.5 to 1,Cc1ccc(C#N)cc1-c1ccc2c(c1)C1(CC3(CCCOC3)O2)N=C(N)N(C)C1=O (stereo not drawn) [Compound 368]
5,0.5 to 1,CN1OC2(C[C@H](C3CCOC(C)(C)C3)Oc3ccc(-c4ccc5cn[nH]c5c4)cc32)N=C1N (stereo partly drawn) [Compound 369]
6,0.5 to 1,CN1OC2(CC(C3CCOC(C)(C)C3)Oc3ccc(-c4csc(-n5ccnc5)n4)cc32)N=C1N (stereo not drawn) [Compound 370]
7,0.5 to 1,CC1CC[C@]2(CO1)C[C@]1(N=C(N)N(C)O1)c1cc(-c3cc(Cl)cc(Cl)c3)ccc1O2 (stereo partly drawn) [Compound 371]
8,0.5 to 1,CN1C(=O)C2(CC(C3CCOC(C)(C)C3)Oc3ccc(-c4cc(F)cc(F)c4)cc32)N=C1N (stereo not drawn) [Compound 372]
9,1 to 5,CN1O[C@]2(C[C@]3(CCCc4ccccc43)Oc3ccc(-c4cccc(C#N)c4)cc32)N=C1N [Compound 374]
10,1 to 5,CN1OC2(CC3(CCC(OCc4ccccc4)CC3)Oc3ccc(-c4cccc(C#N)c4)cc32)N=C1N (stereo not drawn) [Compound 375]
11,1 to 5,CN1C(=O)[C@@]2(C[C@]3(CCCOC3)Oc3ccc(-c4cc(CO)ccc4F)cc32)N=C1N [Compound 376]
12,1 to 5,CC(C)=CC(CCO)C1CC2(N=C(N)N(C)O2)c2cc(-c3cc(F)cc(C#N)c3)ccc2O1 (stereo not drawn) [Compound 377]
13,1 to 5,CCOc1ccc(Cl)cc1-c1ccc2c(c1)[C@]1(C[C@@]3(CCCOC3)O2)N=C(N)N(C)C1=O [Compound 378]
14,1 to 5,CN1C(=O)[C@@]2(C[C@]3(CCCOC3)Oc3ccc(-c4cc(C#N)ccc4C(F)(F)F)cc32)N=C1N [Compound 380]
15,1 to 5,CN1C(=O)C2(CC3(CCCc4ccccc4C3)Oc3ccc(Br)cc32)N=C1N (stereo not drawn) [Compound 381]
16,1 to 5,CC(C)=CC(CCO)C1CC2(N=C(N)N(C)O2)c2cc(-c3cccc(C#N)c3)ccc2O1 (stereo not drawn) [Compound 382]
17,1 to 5,CN1OC2(CC3(CCC(Oc4ccccc4)CC3)Oc3ccc(-c4cccc(C#N)c4)cc32)N=C1N (stereo not drawn) [Compound 383]
18,1 to 5,CN1OC2(C[C@H]([C@@H]3CCOC(C)(C)C3)Oc3ccc(-c4cc(F)ccc4F)cc32)N=C1N (stereo partly drawn) [Compound 384]
19,1 to 5,Cc1ccc(F)cc1-c1ccc2c(c1)[C@]1(C[C@@]3(CCCOC3)O2)N=C(N)N(C)C1=O [Compound 385]
20,1 to 5,CCOC(=O)c1cccc(-c2ccc3c(c2)[C@]2(C[C@]4(CCCOC4)O3)N=C(N)N(C)C2=O)c1 [Compound 386]
21,1 to 5,"CC1CCC2(CO1)CC1(N=C(N)N(C)O1)c1cc(-c3cccc(C#N)c3)ccc1O2 (stereo not drawn) [Compound 387, 3-(2″H-3″-amino-2″-methyl-spiro(spiro(chroman-2,3′-[2,4,5,6-tetrahydro-6-methyl-pyran])-4,5″-[1,2,4]oxadiazole)-6-yl)benzonitrile]"
22,1 to 5,COC1CCC2(CC1)CC1(N=C(N)N(C)O1)c1cc(-c3cccc(C#N)c3)ccc1O2 (stereo not drawn) [Compound 388]
23,1 to 5,Cc1cccc(-c2ccc3c(c2)[C@]2(C[C@]4(CCCOC4)O3)N=C(N)N(C)C2=O)c1C [Compound 389]

row,IC50 [µM],SMILES
1,1 to 5,CN1OC2(CC3(CCN(c4ccccc4)CC3)Oc3ccc(-c4cccc(C#N)c4)cc32)N=C1N (stereo not drawn) [Compound 390]
2,1 to 5,CC(C)=CC(CCO)C1CC2(N=C(N)N(C)O2)c2cc(-c3cc(C#N)ccc3F)ccc2O1 (stereo not drawn) [Compound 391]
3,1 to 5,CC(C)=CC(CCO)[C@@H]1C[C@@]2(N=C(N)N(C)O2)c2cc(-c3cc(F)cc(F)c3F)ccc2O1 (stereo partly drawn) [Compound 392]
4,1 to 5,CN1OC2(CC(C3CCOC(C)(C)C3)Oc3ccc(-c4cccc(Cl)n4)cc32)N=C1N (stereo not drawn) [Compound 393]
5,1 to 5,CN1OC2(C[C@]3(CCCC4CCCCC43)Oc3ccc(-c4cccc(C#N)c4)cc32)N=C1N (stereo partly drawn) [Compound 394]
6,1 to 5,CN1C(=O)C2(CC3(CCCOC3)Oc3ccc(-c4cc(CO)ccc4F)cc32)N=C1N (stereo not drawn) [Compound 395]
7,1 to 5,CN1OC2(CC3(CCOC(C)(C)C3)Oc3ccc(-c4cccc(C#N)c4)cc32)N=C1N (stereo not drawn) [Compound 396]
8,1 to 5,CN1C(=O)C2(CC3(CCCOC3)Oc3ccc(-c4ccsc4)cc32)N=C1N (stereo not drawn) [Compound 397]
9,1 to 5,CN1O[C@@]2(C[C@@H]([C@H]3CCCOC3)Oc3ccc(-c4cc(F)cc(F)c4)cc32)N=C1N [Compound 398]
10,1 to 5,CN1OC2(N=C1N)c1ccccc1OCC2CCc1cccc(C#N)c1 (stereo not drawn) [Compound 399]
11,1 to 5,CN1OC2(CC(C3CCOC(C)(C)C3)Oc3ccc(-c4cccc(-n5ccnc5)n4)cc32)N=C1N (stereo not drawn) [Compound 400]
12,1 to 5,CC(C)=CC(CC(C)(C)O)C1CC2(N=C(N)N(C)O2)c2cc(-c3cccc(C#N)c3)ccc2O1 (stereo not drawn) [Compound 401]
13,1 to 5,CC(C)=CC(CCO)C1CC2(N=C(N)N(C)O2)c2cc(-c3cc(F)cc(Cl)c3)ccc2O1 (stereo not drawn) [Compound 404]
14,1 to 5,CSc1cccc(-c2ccc3c(c2)[C@]2(C[C@@]4(CCCOC4)O3)N=C(N)N(C)C2=O)c1 [Compound 405]
15,1 to 5,CN1OC2(CC(C3CCOC(C)(C)C3)Oc3ccc(-c4cccc(C#N)n4)cc32)N=C1N (stereo not drawn) [Compound 406]
16,1 to 5,"CN1OC2(CC3(CCCOC3)Oc3ccc(C#CC4CC4)cc32)N=C1N (stereo not drawn) [Compound 407, 2″-methyl-6-(cyclopropylethynyl)-2″H-spiro[spiro[chroman-2,1′-(3-oxacyclohexane)]-4,5′-[1,2,4]oxadiazol]-3″-amine]"
17,1 to 5,"CC(=O)N1CCC2(CC1)CC1(N=C(N)N(C)O1)c1cc(-c3cccc(C#N)c3)ccc1O2 (stereo not drawn) [Compound 409, 3-(spiro[spiro(chroman-2,4′-(1-acetylpiperidine))-4,5′-(3-amino-2-methyl-2H-[1,2,4]oxadiazole)]-6-yl)benzonitrile]"
18,1 to 5,CN1C(=O)[C@@]2(C[C@]3(CCCOC3)Oc3ccc(-c4cccc(C#N)n4)cc32)N=C1N [Compound 410]
19,1 to 5,CN1C(=O)[C@@]2(C[C@]3(CCCOC3)Oc3ccc(-c4ccco4)cc32)N=C1N [Compound 411]
20,1 to 5,CC(C)=CC(CCO)C1CC2(N=C(N)N(C)O2)c2cc(-c3cccc(Cl)c3)ccc2O1 (stereo not drawn) [Compound 412]
21,1 to 5,Cc1ccc(C#N)cc1-c1ccc2c(c1)[C@]1(C[C@@]3(CCCOC3)O2)N=C(N)N(C)C1=O [Compound 413]
22,1 to 5,Cc1ccc(-c2ccc3c(c2)C2(CC4(CCCOC4)O3)N=C(N)N(C)C2=O)s1 (stereo not drawn) [Compound 414]
23,1 to 5,CN1OC2(CC3(CCCC(c4ccccc4)C3)Oc3ccc(-c4cccc(C#N)c4)cc32)N=C1N (stereo not drawn) [Compound 415]
